The source of these data is US5846562A, “Oral composition of fumagillol derivative” (Takeda Chemical Industries, Ltd., priority 1996, dated 1998).

Read-outs that look alike come from different tables or passages of the source.

Data set [1] concerns Colon 26 cancer cells. Nature of the data set: Colon 26 tumor growth inhibition in tumor-bearing mice, oral. Type of data set: in vivo, female BALB/c mice. As to conditions: solution in Miglyol 812. The method, then:
(§1) Tumor-bearing mice were provided by transplanting 1×10^5 Colon 26 cancer cells/animal in the flank of female 10-week-old BALB/c mice (Charles River Japan). […] On day 21, the tumor mass at the transplantation site was excised and weighed, and the tumor weight ratio relative to the untreated control group (T/C) was calculated. In addition, the tumor colonies metastasized to the lungs were counted and the median value in each group was compared with that in the untreated control group (T/C).

For data set [2], the system named is Colon 26 cancer cells. Nature of the data set: Lung metastasis (tumor colonies) in Colon 26 tumor-bearing mice, oral. Type of data set: in vivo, female BALB/c mice. As to conditions: for T/C (median number of tumor colonies metastasized to the lungs vs untreated control): oral once daily day 7 to day 20, sample solution in Miglyol 812, day 21. As for the experimental part: as §1

The conditions of data set [3]: rat, in vivo, po, 100 mg/kg. The text has this:
Blood was collected from the caudal vein periodicaly to determine the plasma concentration of metabolite.

Data set [4] can be described thus: Plasma concentration of metabolite after oral compound A with or without famotidine pretreatment. Type of data set: in vivo, SD rats. As to conditions: famotidine-treated group, intragastric pH elevated, vs no famotidine. As for the experimental part: Famotidine (Sigma) was administered subcutaneously to SD rats fasted overnight (dose; 10 mg/kg). […] Blood was serially drawn from the caudal vein to determine the plasma concentration of metabolites.

Take `CO[C@@H]1[C@H](OC(=O)NC(=O)CCl)CC[C@]2(CO2)[C@H]1[C@@]1(C)O[C@@H]1CC=C(C)C` [Compound A, 6-O-(N-chloroacetylcarbamoyl)fumagillol]: the “effect on tumor growth inhibition” value in the data set with Colon 26 cancer cells [1] is “potent and dose-dependent effect”. Moreover, the “T/C (median number of tumor colonies metastasized to the lungs vs untreated control)” value amounted to 71% in the data set with Colon 26 cancer cells [2] (25 mg/kg) and 52% in the data set with Colon 26 cancer cells [2] (50 mg/kg). The “effect on tumor metastasis inhibition” value with Colon 26 cancer cells [2] (oral, solution in Miglyol 812) is “potent and dose-dependent effect”. Also, the “Plasma concentration of metabolite” value in data set [3] (5 min) was determined as 0.0157 ± 0.0016 µg/mL; in data set [3] (10 min) it was 0.0173 ± 0.0049 µg/mL; in data set [3] (30 min) it was 0.0058 ± 0.0036 µg/mL; in data set [3] (60 min), 0 µg/mL. Also, the absorption entry in data set [4] is recorded as “marked increase in absorption”.
